Laboratory results from PubChem BioAssay AID200 (DTP/NCI, 2004).
Where “and” joins values, the source holds several entries; their conditions need not be identical. Equal values may be shown once. Toxic doses and inconclusive results are not listed. How the source made its calls: active means survival T/C of 150% or more; inactive means T/C below 125% in these data.

Tested on: B6C3F1 mice, B16 melanoma ip, median survival T/C
Assay: NCI In Vivo Anticancer Drug Screen. Data for tumor model B16 Melanoma (intraperitoneal) in B6C3F1 mice
Conditions: endpoint: median survival time, schedule: Q01DX009 (ip), higher = longer survival
Summary of the method: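 Mice bearing transplanted tumor were dosed with compound or vehicle, and survival was recorded. Activity is expressed as the treated-group measurement (T) divided by the vehicle control measurement (C).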

[1] = dose: 12.5 mg/kg/injection, vehicle: saline
[2] = dose: 25.0 mg/kg/injection, vehicle: saline
[3] = dose: 50.0 mg/kg/injection, vehicle: saline
[4] = dose: 100.0 mg/kg/injection, vehicle: saline
[5] = dose: 100.0 mg/kg/injection, vehicle: saline with Tween-80
[6] = dose: 6.25 mg/kg/injection, vehicle: Klucel (hydroxypropylcellulose) (HPC)
[7] = dose: 12.5 mg/kg/injection, vehicle: Klucel (hydroxypropylcellulose) (HPC)
[8] = dose: 25.0 mg/kg/injection, vehicle: Klucel (hydroxypropylcellulose) (HPC)
[9] = dose: 50.0 mg/kg/injection, vehicle: Klucel (hydroxypropylcellulose) (HPC)
[10] = dose: 100.0 mg/kg/injection, vehicle: Klucel (hydroxypropylcellulose) (HPC)
[11] = dose: 200.0 mg/kg/injection, vehicle: Klucel (hydroxypropylcellulose) (HPC)
[12] = dose: 3.12 mg/kg/injection, vehicle: Klucel (hydroxypropylcellulose) (HPC)

Measured: T/C

NNC(=O)c1ccncc1
inactive: dose: 6.25 mg/kg/injection, vehicle: saline 112 % of control | [1] 99 % of control | [2] 99 % of control | [3] 105 % of control | dose: 64.0 mg/kg/injection, vehicle: saline 100 % of control | [4] 112 % of control | dose: 128.0 mg/kg/injection, vehicle: saline 99 % of control

CCN1CSC(=S)N(CC)C1
inactive: dose: 25.0 mg/kg/injection, vehicle: saline with Tween-80 94 % of control | dose: 50.0 mg/kg/injection, vehicle: saline with Tween-80 94 % of control | [5] 91 % of control

C[C@H]1C[C@@H]2[C@H]([C@@H](O)C[C@@]3(C)[C@H]2CC[C@]3(O)C(=O)CO)[C@@]2(C)C=CC(=O)C=C12
inactive: [6] 115 % of control and 101 % of control | [7] 110 % of control and 101 % of control | [8] 114 % of control and 107 % of control | [9] 109 % of control and 111 % of control | [10] 118 % of control and 119 % of control | [11] 112 % of control and 121 % of control

Cc1ccccc1N(C=O)c1ccccc1C
inactive: [5] 97 % of control | dose: 200.0 mg/kg/injection, vehicle: saline with Tween-80 97 % of control | dose: 400.0 mg/kg/injection, vehicle: saline with Tween-80 97 % of control

CC(C)(C)OC(=O)NCCCCC(NC(=O)OCC1c2ccccc2-c2ccccc21)C(=O)O (centres undefined)
inactive: [8] 100 % of control | [9] 95 % of control

NC(=O)CCC(NC(=O)OCc1ccccc1)C(=O)NCC(=O)O (centres undefined)
inactive: dose: 12.0 mg/kg/injection, vehicle: Klucel (hydroxypropylcellulose) (HPC) 110 % of control | [8] 98 % of control | [9] 118 % of control | [10] 95 % of control | [11] 98 % of control | dose: 400.0 mg/kg/injection, vehicle: Klucel (hydroxypropylcellulose) (HPC) 103 % of control

CCc1ccc(C2=C(O)C(=O)C(c3ccccc3)=C(O)C2=O)cc1
inactive: [12] 112 % of control | [6] 106 % of control | [7] 108 % of control | [8] 114 % of control | [9] 114 % of control | [10] 108 % of control

OCCCN1CCCCC1CO (centres undefined)
inactive: [1] 94 % of control | [2] 106 % of control | [3] 99 % of control | [4] 105 % of control | dose: 200.0 mg/kg/injection, vehicle: saline 101 % of control | dose: 400.0 mg/kg/injection, vehicle: saline 111 % of control and 101 % of control | dose: 800.0 mg/kg/injection, vehicle: saline 112 % of control

CC(=O)OCC1OC(OC2=C(CC=C(C)C)C(=O)c3ccccc3C2=O)C(OC(C)=O)C(OC(C)=O)C1OC(C)=O (centres undefined)
inactive: [12] 104 % of control | [6] 95 % of control | [7] 98 % of control | [8] 106 % of control | [9] 94 % of control

COC1=CCC23C(=O)C=CC(=O)C2(C1)C(=O)c1ccccc1C3=O (centres undefined)
inactive: dose: 1.56 mg/kg/injection, vehicle: saline with Tween-80 99 % of control | dose: 3.12 mg/kg/injection, vehicle: saline with Tween-80 96 % of control | dose: 6.25 mg/kg/injection, vehicle: saline with Tween-80 93 % of control | dose: 12.5 mg/kg/injection, vehicle: saline with Tween-80 94 % of control
